{"source": "ChEMBL document CHEMBL1149409", "about": "“Inhibition of GABA shunt enzymes' activity by 4-hydroxybenzaldehyde derivatives” (Bioorg Med Chem Lett, 2006)", "key": {"[1]": {"target": "T1, Succinate-semialdehyde dehydrogenase, mitochondrial (Homo sapiens, UniProt P51649)", "T1 sequence (P51649 whole entry)": "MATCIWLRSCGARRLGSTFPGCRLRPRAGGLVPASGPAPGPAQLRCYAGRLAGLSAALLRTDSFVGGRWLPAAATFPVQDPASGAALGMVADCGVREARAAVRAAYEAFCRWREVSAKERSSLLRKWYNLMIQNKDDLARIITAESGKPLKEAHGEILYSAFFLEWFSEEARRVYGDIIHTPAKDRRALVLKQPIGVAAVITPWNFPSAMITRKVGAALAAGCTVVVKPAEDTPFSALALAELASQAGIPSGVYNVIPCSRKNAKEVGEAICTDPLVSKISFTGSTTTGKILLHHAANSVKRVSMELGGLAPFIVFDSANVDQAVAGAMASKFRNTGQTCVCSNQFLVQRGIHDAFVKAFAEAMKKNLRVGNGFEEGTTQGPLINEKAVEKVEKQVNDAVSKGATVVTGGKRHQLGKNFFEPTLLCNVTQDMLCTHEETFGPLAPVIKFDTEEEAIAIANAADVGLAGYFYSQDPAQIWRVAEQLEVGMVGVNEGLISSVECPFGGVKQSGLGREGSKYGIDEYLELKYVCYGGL", "test": "Inhibitory activity against SSADH"}, "[2]": {"target": "4-aminobutyrate aminotransferase, mitochondrial (Homo sapiens, UniProt P80404)", "sequence (P80404 whole entry)": "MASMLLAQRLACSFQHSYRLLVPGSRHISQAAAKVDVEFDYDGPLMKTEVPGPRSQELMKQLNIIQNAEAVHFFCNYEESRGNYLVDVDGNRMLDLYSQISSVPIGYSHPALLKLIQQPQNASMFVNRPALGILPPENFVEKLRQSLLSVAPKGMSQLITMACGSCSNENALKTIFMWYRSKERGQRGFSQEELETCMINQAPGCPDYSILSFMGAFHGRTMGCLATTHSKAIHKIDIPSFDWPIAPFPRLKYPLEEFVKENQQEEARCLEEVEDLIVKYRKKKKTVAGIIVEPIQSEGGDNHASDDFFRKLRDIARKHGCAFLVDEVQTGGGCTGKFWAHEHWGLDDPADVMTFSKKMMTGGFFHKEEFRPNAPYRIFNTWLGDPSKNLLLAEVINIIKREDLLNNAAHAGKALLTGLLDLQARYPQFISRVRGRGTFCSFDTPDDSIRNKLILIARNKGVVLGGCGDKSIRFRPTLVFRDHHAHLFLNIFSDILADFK", "test": "Inhibitory activity against GABAT"}}, "data": [{"smiles": "COc1cc(/C=N/O)ccc1O", "values": [{"measurement": "IC50", "setting": "[1]", "result": "> 1000", "unit": "µM"}, {"measurement": "IC50", "setting": "[2]", "result": "> 1000", "unit": "µM"}]}, {"smiles": "NCc1ccc(O)cc1", "values": [{"measurement": "IC50", "setting": "[1]", "result": "> 1000", "unit": "µM"}, {"measurement": "IC50", "setting": "[2]", "result": 15.4, "unit": "µM"}]}, {"smiles": "O/N=C/c1ccc(O)cc1", "values": [{"measurement": "IC50", "setting": "[1]", "result": "> 1000", "unit": "µM"}, {"measurement": "IC50", "setting": "[2]", "result": "> 1000", "unit": "µM"}]}, {"smiles": "O=Cc1ccc(O)c([N+](=O)[O-])c1", "values": [{"measurement": "IC50", "setting": "[1]", "result": 33.1, "unit": "µM"}, {"measurement": "IC50", "setting": "[2]", "result": 15.5, "unit": "µM"}]}, {"smiles": "C=CC(=O)c1ccc(O)cc1", "values": [{"measurement": "IC50", "setting": "[1]", "result": 0.35, "unit": "µM"}, {"measurement": "IC50", "setting": "[2]", "result": 5.48, "unit": "µM"}]}, {"smiles": "CC(=O)c1ccc(O)cc1", "note": "[4-HYDROXYACETOPHENONE]", "values": [{"measurement": "IC50", "setting": "[1]", "result": 166, "unit": "µM"}, {"measurement": "IC50", "setting": "[2]", "result": 188, "unit": "µM"}]}, {"smiles": "O=Cc1ccc(O)cc1", "note": "[4-HYDROXYBENZALDEHYDE]", "values": [{"measurement": "IC50", "setting": "[1]", "result": 24.7, "unit": "µM"}, {"measurement": "IC50", "setting": "[2]", "result": 16.5, "unit": "µM"}]}, {"smiles": "Nc1ccc(C(=O)O)cc1", "note": "[AMINOBENZOIC ACID]", "values": [{"measurement": "IC50", "setting": "[1]", "result": "> 1000", "unit": "µM"}, {"measurement": "IC50", "setting": "[2]", "result": "> 1000", "unit": "µM"}]}, {"smiles": "COc1ccc(C=O)cc1", "note": "[ANISALDEHYDE]", "values": [{"measurement": "IC50", "setting": "[1]", "result": "> 1000", "unit": "µM"}, {"measurement": "IC50", "setting": "[2]", "result": "> 1000", "unit": "µM"}]}, {"smiles": "OCc1ccc(O[C@@H]2O[C@H](CO)[C@@H](O)[C@H](O)[C@H]2O)cc1", "note": "[GASTRODIN]", "values": [{"measurement": "IC50", "setting": "[1]", "result": "> 1000", "unit": "µM"}, {"measurement": "IC50", "setting": "[2]", "result": "> 1000", "unit": "µM"}]}, {"smiles": "O=Cc1ccc(O[C@@H]2O[C@H](CO)[C@@H](O)[C@@H](O)[C@H]2O)cc1", "note": "[HELICIDE]", "values": [{"measurement": "IC50", "setting": "[1]", "result": "> 1000", "unit": "µM"}, {"measurement": "IC50", "setting": "[2]", "result": "> 1000", "unit": "µM"}]}, {"smiles": "O=C(O)c1ccc(O)cc1", "note": "[PARABEN]", "values": [{"measurement": "IC50", "setting": "[1]", "result": "> 1000", "unit": "µM"}, {"measurement": "IC50", "setting": "[2]", "result": "> 1000", "unit": "µM"}]}, {"smiles": "OCc1ccc(O)cc1", "note": "[PARAHYDROXYBENZYL ALCOHOL]", "values": [{"measurement": "IC50", "setting": "[1]", "result": "> 1000", "unit": "µM"}, {"measurement": "IC50", "setting": "[2]", "result": "> 1000", "unit": "µM"}]}, {"smiles": "CCC(=O)c1ccc(O)cc1", "note": "[PAROXYPROPIONE]", "values": [{"measurement": "IC50", "setting": "[1]", "result": 293, "unit": "µM"}, {"measurement": "IC50", "setting": "[2]", "result": 176, "unit": "µM"}]}, {"smiles": "COc1cc(C=O)ccc1O", "note": "[VANILLIN]", "values": [{"measurement": "IC50", "setting": "[1]", "result": 15.6, "unit": "µM"}, {"measurement": "IC50", "setting": "[2]", "result": 17.1, "unit": "µM"}]}]}
